In general, IC50 refers to the concentration that gives 50% inhibition.

We go through 26 compounds from patent US20060264419A1 (priority 2003, published 2006).

The assay has as its target 5-HT2A receptors (Rattus norvegicus, UniProt P14842). Put plainly: in-vitro affinity to 5-HT2A receptors, displacement of [3H]ketanserine (Example A1). In kind it is binding. To be noted: read-out: HT2A IC50. The text has this: The 5-HT2A receptors are exposed both to [^3H]ketanserine (a substance which is known for its affinity to the receptor) and also to the test compound. The decrease in the affinity of [^3H]ketanserine to the receptor is an indication of the affinity of the test substance to the 5-HT2A receptor.

SMILES strings stand for the structures.

Chain of 5-HT2A receptors (P14842 whole entry): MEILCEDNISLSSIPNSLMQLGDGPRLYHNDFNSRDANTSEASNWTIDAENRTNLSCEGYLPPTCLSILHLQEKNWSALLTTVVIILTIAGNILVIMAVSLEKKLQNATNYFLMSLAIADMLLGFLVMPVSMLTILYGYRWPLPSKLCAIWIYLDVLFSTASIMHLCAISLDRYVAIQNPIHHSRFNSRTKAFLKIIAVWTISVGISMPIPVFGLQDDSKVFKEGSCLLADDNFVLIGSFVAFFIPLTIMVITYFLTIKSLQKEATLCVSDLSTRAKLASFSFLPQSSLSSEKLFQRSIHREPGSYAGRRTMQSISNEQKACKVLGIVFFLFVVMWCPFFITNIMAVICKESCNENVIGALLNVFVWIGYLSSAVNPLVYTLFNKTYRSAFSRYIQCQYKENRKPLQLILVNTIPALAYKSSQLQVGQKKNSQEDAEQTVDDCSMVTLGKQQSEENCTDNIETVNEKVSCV

For `Fc1ccc(CCN2CCN(Cc3cnn(-c4ccccn4)c3-c3ccccc3F)CC2)cc1` [Example 950, 1-[2-(4-Fluorophenyl)ethyl]-4-[5-(2-fluoro-phenyl)-1-pyridin-2-yl-1H-pyrazol-4-ylmethyl]-piperazine], the IC50 is 53 nM.
As for `COc1ccc(-c2c(CN3CCN(CCN4CCCC4)CC3)cnn2-c2ccc(-c3ccc(F)cc3)cc2)cc1` [Example 954, 1-[1-(4′-Fluorobiphenyl-4-yl)-5-(4-methoxy-phenyl)-1H-pyrazol-4-ylmethyl]-4-(2-pyrroli-din-1-ylethyl)piperazine], the IC50 was found to be 56 nM.
Consider `CN1CCN(Cc2cnn(-c3ccc(-c4ccc(F)cc4F)cc3)c2-c2ccccc2F)CC1` [Example 955, 1-[1-(2′,4′-Difluorobiphenyl-4-yl)-5-(2-fluoro-phenyl)-1H-pyrazol-4-ylmethyl]-4-methyl-piperazine], for which the IC50 is 56 nM.
For `CCc1ccc(-c2ccc(-n3ncc(CN4CCN(C)CC4)c3-c3ccccc3F)cc2)cc1` [Example 956, 1-[1-(4′-Ethylbiphenyl-4-yl)-5-(2-fluorophenyl)-1H-pyrazol-4-ylmethyl]-4-methylpiperazine], the IC50 is 57 nM.
For `CCOC(=O)N1CCN(Cc2cnn(-c3ccc(-c4ccccc4)cc3)c2-c2ccccc2F)CC1` [Example 957, Ethyl 4-[1-biphenyl-4-yl-5-(2-fluoro-phenyl)-1H-pyrazol-4-ylmethyl]piperazine-1-carboxylate], the IC50 was determined as 58 nM.
In the case of `Cc1ccc(-c2ccc(-n3ncc(CN4CCN(C)CC4)c3-c3ccccc3F)cc2)c(F)c1F` [Example 959, 1-[1-(2′,3′-Difluoro-4′-methylbiphenyl-4-yl)-5-(2-fluorophenyl)-1H-pyrazol-4-ylmethyl]-4-methylpiperazine], the IC50 came out at 60 nM.
For the compound `Fc1ccccc1-c1c(CN2CCC(Cc3cccnc3)CC2)cnn1-c1ccc(-c2ccccc2)cc1` [Example 962, 3-{1-[1-Biphenyl-4-yl-5-(2-fluoro-phenyl)-1H-pyrazol-4-ylmethyl}piperidin-4-ylmethyl]pyridine], the IC50 was 66 nM.
As to `CN1CCN(Cc2cnn(-c3ccc(-c4cccc(Cl)c4)cc3)c2-c2ccccc2F)CC1` [Example 963, 1-[1-(3′-Chlorobiphenyl-4-yl)-5-(2-fluoro-phenyl)-1H-pyrazol-4-ylmethyl]-4-methyl-piperazine], the IC50 was found to be 69 nM.
Consider `Cc1ccccc1-c1c(CN2CCN(C)CC2)cnn1-c1ccc(-c2ccc(F)cc2)cc1` [Example 966, 1-[1-(4′-Fluorobiphenyl-4-yl)-5-o-tolyl-1H-pyrazol-4-ylmethyl]-4-methyl-piperazine], for which the IC50 was determined as 72 nM.
For `CN1CCN(Cc2cnn(-c3ccc(-c4cccc(F)c4F)cc3)c2-c2ccccc2F)CC1` [Example 967, 1-[1-(2′,3′-Difluorobiphenyl-4-yl)-5-(2-fluoro-phenyl)-1H-pyrazol-4-ylmethyl]-4-methyl-piperazine], the IC50 was 73 nM.
Under `Fc1ccccc1-c1c(CN2CCN(Cc3ccncc3)CC2)cnn1-c1ccc(-c2ccccc2)cc1` [Example 968, 1-[1-Biphenyl-4-yl-5-(2-fluorophenyl)-1H-pyrazol-4-ylmethyl]-4-pyridin-4-ylmethylpiperazine] stands 75 nM.
For the compound `CN(C)Cc1ccccc1-c1ccc(-n2ncc(CN3CCN(C)CC3)c2-c2ccccc2F)cc1` [Example 970, {4′-[5-(2-Fluorophenyl)-4-(4-methyl-piperazin-1-ylmethyl)pyrazol-1-yl]biphenyl-2-ylmethyl}-dimethylamine], the IC50 was 81 nM.
For `CN1CCN(Cc2cnn(-c3ccc(-c4ccc(F)cc4)cc3)c2-c2cnccn2)CC1` [Example 972, 2-[2-(4′-Fluorobiphenyl-4-yl)-4-(4-methyl-piperazin-1-ylmethyl)-2H-pyrazol-3-yl]-pyrazine], the IC50 was determined as 85 nM.
The figure for `CN1CCN(Cc2cnn(-c3ccc(-c4cc(Cl)cc(Cl)c4)cc3)c2-c2ccccc2F)CC1` [Example 973, 1-[1-(3′,5′-Dichlorobiphenyl-4-yl)-5-(2-fluoro-phenyl)-1H-pyrazol-4-ylmethyl]-4-methyl-piperazine] is 86 nM; for `CN1CCN(NCc2cnn(-c3ccc(-c4ccc(F)cc4)cc3)c2-c2ccccc2)CC1` [Example 974, [1-(4′-Fluorobiphenyl-4-yl)-5-phenyl-1H-pyrazol-4-ylmethyl]-(4-methyl-piperazin-1-yl)amine] it is 87 nM; for `Cc1nn(-c2ccccc2)c(C)c1CN1CCN(C(=O)CC(C)C(=O)O)CC1` (centres unmarked) [Example 978] it is 100 nM.
Turning to `CC1CN(Cc2cnn(-c3ccc(-c4ccccc4)cc3)c2-c2ccccc2F)CC(C)N1` (centres unmarked) [Example 979, 1-[1-Biphenyl-4-yl-5-(2-fluorophenyl)-1H-pyrazol-4-ylmethyl]-3,5-dimethylpiperazine], the IC50 was 100 nM.
Consider `O=C(CNCc1cnn(-c2ccc(-c3ccccc3)cc2)c1-c1ccccc1F)Nc1ccc([N+](=O)[O-])cc1` [Example 980, 2-{[1-Biphenyl-4-yl-5-(2-fluorophenyl)-1H-pyrazol-4-ylmethyl]amino}-N-(4-nitrophenyl)-acetamide], for which the IC50 came out at 100 nM.
Under `Fc1ccc(-c2ccc(-n3ncc(CN(Cc4cnn(-c5ccc(-c6ccc(F)cc6)cc5)c4-c4ccco4)C4CC4)c3-c3ccco3)cc2)cc1` [Example 982, Cyclopropylbis-[1-(4′-fluorobiphenyl-4-yl)-5-furan-2-yl-1H-pyrazol-4-ylmethyl]amine] stands 110 nM; under `CN1CCN(Cc2cnn(-c3ccc(-c4ccccc4Cl)cc3)c2-c2ccccc2F)CC1` [Example 984, 1-[1-(2′-Chlorobiphenyl-4-yl)-5-(2-fluoro-phenyl)-1H-pyrazol-4-ylmethyl]-4-methyl-piperazine], 120 nM.
Turning to `O=C(CN1CCN(Cc2cnn(-c3ccc(-c4ccccc4)cc3)c2-c2ccccc2F)CC1)N1CCCC1` [Example 985, 2-{4-[1-Biphenyl-4-yl-5-(2-fluoro-phenyl)-1H-pyrazol-4-ylmethyl]piperazin-1-yl}-1-pyrrolidin-1-ylethanone], the IC50 worked out at 122 nM.
As for `CC1CCN(Cc2cnn(-c3ccc(-c4ccccc4)cc3)c2-c2ccccc2F)CC1` [Example 986, 1-[1-Biphenyl-4-yl-5-(2-fluorophenyl)-1H-pyrazol-4-ylmethyl]-4-methylpiperidine], the IC50 came out at 130 nM.
As to `N#CC(NCc1cnn(-c2ccc(-c3ccccc3)cc2)c1-c1ccccc1F)C(N)=O` (centres unmarked) [Example 987, 2-{[1-Biphenyl-4-yl-5-(2-fluorophenyl)-1H-pyrazol-4-ylmethyl]amino}-2-cyanoacetamide], the IC50 was 130 nM.
For `CC(=O)Nc1cccc(-c2ccc(-n3ncc(CN4CCN(C)CC4)c3-c3ccccc3F)cc2)c1` [Example 988, N-{4′-[5-(2-Fluorophenyl)-4-(4-methyl-piperazin-1-ylmethyl)pyrazol-1-yl]biphenyl-3-yl}acetamide], the IC50 came out at 130 nM.
Take `CN1CCN(Cc2cnn(-c3ccc(Br)cc3)c2-c2ccccc2F)CC1` [Example 989, 1-[1-(4-Bromophenyl)-5-(2-fluoro-phenyl)-1H-pyrazol-4-ylmethyl]-4-methylpiperazine]: the IC50 was determined as 130 nM.
Turning to `Fc1ccccc1-c1c(CNC2CN3CCC2CC3)cnn1-c1ccc(-c2ccccc2)cc1` (centres unmarked) [Example 991, (1-Azabicyclo[2.2.2]oct-3-yl)-[1-biphenyl-4-yl-5-(2-fluorophenyl)-1H-pyrazol-4-ylmethyl]-amine], the IC50 amounted to 140 nM.
